Measured values published in BigSolDB 2.1.

Cc1cc(C#N)c(Nc2ccccc2[N+](=O)[O-])s1
Conditions | solubility (mole fraction)
in DMSO, 292.15 K | 0.0519
in DMSO, 297.15 K | 0.0588
in DMSO, 301.15 K | 0.0671
in DMSO, 306.15 K | 0.0734
in DMSO, 310.15 K | 0.0801
in DMSO, 316.15 K | 0.0913
in DMSO, 320.15 K | 0.101
in DMSO, 325.15 K | 0.112
in DMSO, 328.15 K | 0.123
in DMSO, 332.15 K | 0.135
in acetic acid, 293.15 K | 0.00487
in acetic acid, 297.15 K | 0.00588
in acetic acid, 302.15 K | 0.00725
in acetic acid, 307.15 K | 0.00881
in acetic acid, 311.15 K | 0.0109
in acetic acid, 316.15 K | 0.0127
in acetic acid, 320.15 K | 0.0159
in acetic acid, 325.15 K | 0.0202
in acetic acid, 329.15 K | 0.0248
in acetic acid, 333.15 K | 0.0306
in acetone, 292.15 K | 0.0262
in acetone, 296.15 K | 0.0322
in acetone, 302.15 K | 0.0377
in acetone, 305.15 K | 0.0444
in acetone, 311.15 K | 0.0513
in acetone, 316.15 K | 0.0604
in ethanol, 292.15 K | 0.00106
in ethanol, 296.15 K | 0.00131
in ethanol, 302.15 K | 0.00163
in ethanol, 306.15 K | 0.00214
in ethanol, 311.15 K | 0.00274
in ethanol, 315.15 K | 0.00345
in ethanol, 320.15 K | 0.00427
in ethanol, 325.15 K | 0.00528
in ethanol, 329.15 K | 0.00638
in ethanol, 334.15 K | 0.00766
in ethyl acetate, 293.15 K | 0.0199
in ethyl acetate, 296.15 K | 0.0227
in ethyl acetate, 302.15 K | 0.0255
in ethyl acetate, 306.15 K | 0.0315
in ethyl acetate, 311.15 K | 0.0379
in ethyl acetate, 315.15 K | 0.0442
in ethyl acetate, 320.15 K | 0.0494
in ethyl acetate, 324.15 K | 0.0591
in ethyl acetate, 329.15 K | 0.0713
in ethyl acetate, 333.15 K | 0.0858
in methanol, 292.15 K | 0.00109
in methanol, 297.15 K | 0.00145
in methanol, 302.15 K | 0.00186
in methanol, 306.15 K | 0.00233
in methanol, 311.15 K | 0.00291
in methanol, 315.15 K | 0.00368
in methanol, 320.15 K | 0.00464
in methanol, 324.15 K | 0.00575
